{
  "source": "paper PMC5433425",
  "about": "(PeerJ, 2017)",
  "system": "E. coli AG100tet",
  "assay": "EtBr efflux by real-time fluorometry",
  "conditions": "80 µM",
  "method": "Control tubes with only cells and cells with and without 0.4% glucose were included. The fluorescence was measured in a Rotor-Gene 3000 and the data was acquired every 30 s for 30 min at 37 °C. The efflux activity was quantified by comparing the fluorescence data obtained under conditions that promote efflux (presence of glucose and absence of efflux inhibitor) with the data from the control in which the bacteria are under conditions of no efflux (presence of an inhibitor and no energy source).",
  "data": [
    {"smiles": "CN(C)CCCN1c2ccccc2Sc2ccc(Cl)cc21", "note": "[CPZ, chlorpromazine]", "values": [
      {"measurement": "Fluorescence raw data, Channel Cycling A.530/585hp", "setting": "cycle 16, without glucose", "value": 7.989},
      {"measurement": "Fluorescence raw data, Channel Cycling A.530/585hp", "setting": "cycle 17, + glucose", "value": 6.675},
      {"measurement": "Fluorescence raw data, Channel Cycling A.530/585hp", "setting": "cycle 17, without glucose", "value": 8.041},
      {"measurement": "Fluorescence raw data, Channel Cycling A.530/585hp", "setting": "cycle 18, + glucose", "value": 6.686},
      {"measurement": "Fluorescence raw data, Channel Cycling A.530/585hp", "setting": "cycle 18, without glucose", "value": 8.027},
      {"measurement": "Fluorescence raw data, Channel Cycling A.530/585hp", "setting": "cycle 19, + glucose", "value": 6.605},
      {"measurement": "Fluorescence raw data, Channel Cycling A.530/585hp", "setting": "cycle 19, without glucose", "value": 8.219},
      {"measurement": "Fluorescence raw data, Channel Cycling A.530/585hp", "setting": "cycle 20, + glucose", "value": 6.711},
      {"measurement": "Fluorescence raw data, Channel Cycling A.530/585hp", "setting": "cycle 20, without glucose", "value": 8.174},
      {"measurement": "Fluorescence raw data, Channel Cycling A.530/585hp", "setting": "cycle 21, + glucose", "value": 6.762},
      {"measurement": "Fluorescence raw data, Channel Cycling A.530/585hp", "setting": "cycle 21, without glucose", "value": 8.255},
      {"measurement": "Fluorescence raw data, Channel Cycling A.530/585hp", "setting": "cycle 22, + glucose", "value": 6.7278},
      {"measurement": "Fluorescence raw data, Channel Cycling A.530/585hp", "setting": "cycle 22, without glucose", "value": 8.507},
      {"measurement": "Fluorescence raw data, Channel Cycling A.530/585hp", "setting": "cycle 23, + glucose", "value": 6.745},
      {"measurement": "Fluorescence raw data, Channel Cycling A.530/585hp", "setting": "cycle 23, without glucose", "value": 8.467},
      {"measurement": "Fluorescence raw data, Channel Cycling A.530/585hp", "setting": "cycle 24, + glucose", "value": 6.771},
      {"measurement": "Fluorescence raw data, Channel Cycling A.530/585hp", "setting": "cycle 24, without glucose", "value": 8.6},
      {"measurement": "Fluorescence raw data, Channel Cycling A.530/585hp", "setting": "cycle 25, + glucose", "value": 6.796},
      {"measurement": "Fluorescence raw data, Channel Cycling A.530/585hp", "setting": "cycle 25, without glucose", "value": 8.667},
      {"measurement": "Fluorescence raw data, Channel Cycling A.530/585hp", "setting": "cycle 26, + glucose", "value": 6.92},
      {"measurement": "Fluorescence raw data, Channel Cycling A.530/585hp", "setting": "cycle 26, without glucose", "value": 8.734},
      {"measurement": "Fluorescence raw data, Channel Cycling A.530/585hp", "setting": "cycle 27, + glucose", "value": 6.8217},
      {"measurement": "Fluorescence raw data, Channel Cycling A.530/585hp", "setting": "cycle 27, without glucose", "value": 8.768},
      {"measurement": "Fluorescence raw data, Channel Cycling A.530/585hp", "setting": "cycle 28, + glucose", "value": 6.925},
      {"measurement": "Fluorescence raw data, Channel Cycling A.530/585hp", "setting": "cycle 28, without glucose", "value": 8.988},
      {"measurement": "Fluorescence raw data, Channel Cycling A.530/585hp", "setting": "cycle 29, + glucose", "value": 6.828},
      {"measurement": "Fluorescence raw data, Channel Cycling A.530/585hp", "setting": "cycle 29, without glucose", "value": 9.111},
      {"measurement": "Fluorescence raw data, Channel Cycling A.530/585hp", "setting": "cycle 30, + glucose", "value": 6.9},
      {"measurement": "Fluorescence raw data, Channel Cycling A.530/585hp", "setting": "cycle 30, without glucose", "value": 8.957},
      {"measurement": "Fluorescence raw data, Channel Cycling A.530/585hp", "setting": "cycle 31, + glucose", "value": 6.782},
      {"measurement": "Fluorescence raw data, Channel Cycling A.530/585hp", "setting": "cycle 31, without glucose", "value": 9.091},
      {"measurement": "Fluorescence raw data, Channel Cycling A.530/585hp", "setting": "cycle 32, + glucose", "value": 6.729},
      {"measurement": "Fluorescence raw data, Channel Cycling A.530/585hp", "setting": "cycle 32, without glucose", "value": 9.229},
      {"measurement": "Fluorescence raw data, Channel Cycling A.530/585hp", "setting": "cycle 33, + glucose", "value": 6.907},
      {"measurement": "Fluorescence raw data, Channel Cycling A.530/585hp", "setting": "cycle 33, without glucose", "value": 9.3007},
      {"measurement": "Fluorescence raw data, Channel Cycling A.530/585hp", "setting": "cycle 34, + glucose", "value": 6.901},
      {"measurement": "Fluorescence raw data, Channel Cycling A.530/585hp", "setting": "cycle 34, without glucose", "value": 9.345},
      {"measurement": "Fluorescence raw data, Channel Cycling A.530/585hp", "setting": "cycle 35, + glucose", "value": 6.783},
      {"measurement": "Fluorescence raw data, Channel Cycling A.530/585hp", "setting": "cycle 35, without glucose", "value": 9.405},
      {"measurement": "Fluorescence raw data, Channel Cycling A.530/585hp", "setting": "cycle 36, + glucose", "value": 6.785},
      {"measurement": "Fluorescence raw data, Channel Cycling A.530/585hp", "setting": "cycle 36, without glucose", "value": 9.367},
      {"measurement": "Fluorescence raw data, Channel Cycling A.530/585hp", "setting": "cycle 37, + glucose", "value": 6.975},
      {"measurement": "Fluorescence raw data, Channel Cycling A.530/585hp", "setting": "cycle 37, without glucose", "value": 9.488},
      {"measurement": "Fluorescence raw data, Channel Cycling A.530/585hp", "setting": "cycle 38, + glucose", "value": 6.976},
      {"measurement": "Fluorescence raw data, Channel Cycling A.530/585hp", "setting": "cycle 38, without glucose", "value": 9.581},
      {"measurement": "Fluorescence raw data, Channel Cycling A.530/585hp", "setting": "cycle 39, + glucose", "value": 6.681},
      {"measurement": "Fluorescence raw data, Channel Cycling A.530/585hp", "setting": "cycle 39, without glucose", "value": 9.571},
      {"measurement": "Fluorescence raw data, Channel Cycling A.530/585hp", "setting": "cycle 40, + glucose", "value": 6.952},
      {"measurement": "Fluorescence raw data, Channel Cycling A.530/585hp", "setting": "cycle 40, without glucose", "value": 9.707},
      {"measurement": "Fluorescence raw data, Channel Cycling A.530/585hp", "setting": "cycle 41, + glucose", "value": 6.766},
      {"measurement": "Fluorescence raw data, Channel Cycling A.530/585hp", "setting": "cycle 41, without glucose", "value": 9.731},
      {"measurement": "Fluorescence raw data, Channel Cycling A.530/585hp", "setting": "cycle 42, + glucose", "value": 6.916},
      {"measurement": "Fluorescence raw data, Channel Cycling A.530/585hp", "setting": "cycle 42, without glucose", "value": 9.718},
      {"measurement": "Fluorescence raw data, Channel Cycling A.530/585hp", "setting": "cycle 43, + glucose", "value": 6.844},
      {"measurement": "Fluorescence raw data, Channel Cycling A.530/585hp", "setting": "cycle 43, without glucose", "value": 9.8689},
      {"measurement": "Fluorescence raw data, Channel Cycling A.530/585hp", "setting": "cycle 44, + glucose", "value": 6.82},
      {"measurement": "Fluorescence raw data, Channel Cycling A.530/585hp", "setting": "cycle 44, without glucose", "value": 9.768},
      {"measurement": "Fluorescence raw data, Channel Cycling A.530/585hp", "setting": "cycle 45, without glucose", "value": 9.807},
      {"measurement": "Fluorescence raw data, Channel Cycling A.530/585hp", "setting": "cycle 46, without glucose", "value": 9.797},
      {"measurement": "Fluorescence raw data, Channel Cycling A.530/585hp", "setting": "cycle 47, without glucose", "value": 9.663},
      {"measurement": "Fluorescence raw data, Channel Cycling A.530/585hp", "setting": "cycle 48, without glucose", "value": 9.794},
      {"measurement": "Fluorescence raw data, Channel Cycling A.530/585hp", "setting": "cycle 49, without glucose", "value": 9.745},
      {"measurement": "Fluorescence raw data, Channel Cycling A.530/585hp", "setting": "cycle 50, without glucose", "value": 9.769},
      {"measurement": "Fluorescence raw data, Channel Cycling A.530/585hp", "setting": "cycle 51, without glucose", "value": 9.982},
      {"measurement": "Fluorescence raw data, Channel Cycling A.530/585hp", "setting": "cycle 52, without glucose", "value": 9.725},
      {"measurement": "Fluorescence raw data, Channel Cycling A.530/585hp", "setting": "cycle 53, without glucose", "value": 9.758},
      {"measurement": "Fluorescence raw data, Channel Cycling A.530/585hp", "setting": "cycle 54, without glucose", "value": 9.768},
      {"measurement": "Fluorescence raw data, Channel Cycling A.530/585hp", "setting": "cycle 55, without glucose", "value": 9.755},
      {"measurement": "Fluorescence raw data, Channel Cycling A.530/585hp", "setting": "cycle 56, without glucose", "value": 9.766},
      {"measurement": "Fluorescence raw data, Channel Cycling A.530/585hp", "setting": "cycle 57, without glucose", "value": 9.676},
      {"measurement": "Fluorescence raw data, Channel Cycling A.530/585hp", "setting": "cycle 58, without glucose", "value": 9.567},
      {"measurement": "Fluorescence raw data, Channel Cycling A.530/585hp", "setting": "cycle 59, without glucose", "value": 9.679},
      {"measurement": "Fluorescence raw data, Channel Cycling A.530/585hp", "setting": "cycle 60, without glucose", "value": 9.626},
      {"measurement": "Fluorescence raw data, Channel Cycling A.530/585hp", "setting": "cycle 61, without glucose", "value": 9.5963}
    ]}
  ]
}
